Measurements reported in US20060018951A1, “pH-responsive film for intravaginal delivery of a beneficial agent” (SRI International, priority 2003, published 2006).

System: sperm
Test: Sperm motility assay
Type: cell-based, Sprague-Dawley rats
Procedure: Male Sprague-Dawley-rats, between the ages of 16-22 weeks, were used for this study. Following anesthesia, both testes were removed and the epididymides were collected, rinsed in warm Dulbecco's phosphate buffered saline (37° C.), and placed in a petri dish containing approximately 10 mL warm MHF-10 (37° C.). The epididymides were minced with scissors to release sperm. Pipette sperm suspension into a 50 mL plastic centrifuge tube with a screw cap. Dilute sperm with additional MHF-10 (approximately 5-12 mL) to form a milky suspension. The initial percentage of motile sperm must be at least 70% for a valid assay, and is determined by inoculating 200 μL sperm suspension into 0.8 mL MHF-10 and counting motile versus nonmotile sperm. After the test article concentrations equilibrated in a 36° to 37° C. incubator for at least 30 minutes, 200 μL aliquots of the sperm suspension were added to the 0.8 mL test compound concentrations, two at a time, at 5 minute intervals, beginning with the highest concentration and proceeding to in order to the lowest concentration, then ending with vehicle and positive controls. The final volume was 1 mL per test compound concentration. Motility was assessed using a microscope. 50-μL aliquots of the test concentration, containing sperm, were added to the wells of preheated glass slides and covered with preheated glass coverslips. Pipette tips, slides, and coverslips were maintained at 36-37° C. on a warming plate. Motility was assessed at the appropriate exposure times, generally 20 and 40 min after addition of sperm to the test concentration. The degrees of motility of≧200 sperm per concentration per time point were evaluated as either not motile (0), incipiently motile (quivering/pulsing/wiggling) (1), slowly motile (2), or rapidly motile (3). Criteria for a Valid Assay. […] Percent motility in the tables below is calculated as (Prog. Motile)/Total (Prog.+Incip.+Non)×100.

[1] = Experiment B, 1 min, film 49.1-50 mg, N9 amount not given, sperm count
[2] = Experiment B, 15 min, film 49.1-50 mg, N9 amount not given, sperm count
[3] = Experiment B, 30 min, film 49.1-50 mg, N9 amount not given, sperm count
[4] = Experiment C, 1 min, Nos 5-8: films 49.9-51.0 mg, N9 amount not given, sperm count
[5] = Experiment C, 15 min, Nos 5-8: films 49.9-51.0 mg, N9 amount not given, sperm count
[6] = Experiment C, 30 min, Nos 5-8: films 49.9-51.0 mg, N9 amount not given, sperm count
[7] = Experiment D, 1 min, films 50-50.09 mg, N9 amount not given, sperm count
[8] = Experiment D, 15 min, films 50-50.09 mg, N9 amount not given, sperm count
[9] = Experiment D, 30 min, films 50-50.09 mg, N9 amount not given, sperm count
[10] = first sperm study (T8), 1 min, films 4.3-19.8 mg, sperm count
[11] = first sperm study (T8), 15 min, films 4.3-19.8 mg, sperm count
[12] = first sperm study (T8), 30 min, films 4.3-19.8 mg, sperm count

CC(O)C(=O)O (centres unmarked) [Lactic Acid 4%, Lactic Acid]
Non-Mot (Experiment B, 1 min, 100 μl solution, sperm count): 103
Non-Mot (Experiment B, 1 min, 200 μl solution, sperm count): 200

nonylphenoxypolyethoxy ethanol [Formulation N-9]
% Motility (Experiment B, 1 min, film 49.1-50 mg, N9 amount not given): 0%
Incip.Mot [1]: 0
Non-Mot [1]: 200
Prog.-Mot [1]: 0
% Motility (Experiment B, 15 min, film 49.1-50 mg, N9 amount not given): 0%
Incip.Mot [2]: 0
Non-Mot [2]: 200
% Motility (Experiment B, 30 min, film 49.1-50 mg, N9 amount not given): 0%
Incip.Mot [3]: 0
Non-Mot [3]: 200
Prog.Mot [3]: 0
% Motility (Experiment C, 1 min, Nos 5-8: films 49.9-51.0 mg, N9 amount not given): 0%
Incip.Mot [4]: 0
Non-Mot [4]: 200
Prog-Mot [4]: 0
Total (Experiment C, 15 min, Nos 5-8: films 49.9-51.0 mg, N9 amount not given): 0
Incip.Mot [5]: 0
Mot [5]: 0
Non-Mot [5]: 200
Total (Experiment C, 30 min, Nos 5-8: films 49.9-51.0 mg, N9 amount not given): 0
Incip.Mot [6]: 0
Mot [6]: 0
Non-Mot [6]: 200
% Motility (Experiment D, 1 min, films 50-50.09 mg, N9 amount not given): 0%
Incip.Mot [7]: 0
Non-Mot [7]: 200
Prog.Mot [7]: 0
% Motility (Experiment D, 15 min, films 50-50.09 mg, N9 amount not given): 0%
Incip.Mot [8]: 0
Non-Mot [8]: 200
Prog.Mot [8]: 0
% Motility (Experiment D, 30 min, films 50-50.09 mg, N9 amount not given): 0%
Incip.Mot [9]: 0
Mot [9]: 0
% Motility (first sperm study (T8), 1 min, films 4.3-19.8 mg): 0%
Incip.Mot [10]: 0
Non-Mot [10]: 100
% Motility (first sperm study (T8), 15 min, films 4.3-19.8 mg): 0%
Incip.Mot [11]: 0
Non-Motile [11]: 100
Prog-Motile [11]: 0
% Motility (first sperm study (T8), 30 min, films 4.3-19.8 mg): 0%
Incip.Mot [12]: 0
Non-Motile [12]: 100
Prog-Motile [12]: 0
